Assay results published in patent US20210315921A1, “Compounds and Methods for Modifying iAge” (Edifice Health, Inc,, priority 2020, published 2021).

B1: MIG: recombinant mouse MIG (R&D systems, catalog number 492-MM), monokine induced by gamma interferon (protein, UniProt P18340 22-126, looked up)
C-X-C motif chemokine 9: TLVIRNARCSCISTSRGTIHYKSLKDLKQFAPSPNCNKTEIIATLKNGDQTCLDPDSANVKKLMKEWEKKISQKKKQKRGKKHQKNMKNRKPKTPQSRRRSRKTT

Columns and labels:
[1] = tested on: estrogen levels; details: while raising testosterone levels; cited from earlier work
[2] = tested on: Mouse thoracic aortas; assay: Acetylcholine relaxation of mouse thoracic aortic rings after exposure to MIG (wire myograph); details: mouse thoracic aortic sections, precontracted with U46619, increasing concentrations of recombinant mouse MIG
Procedure: Mouse thoracic aortas were carefully dissected, and vessels were cut into small rings and mounted on an isometric wire myograph chambers (Danish Myo Technology) and subjected to a normalization protocol. Following normalization, the vessels were incubated with either PBS or different concentrations of recombinant mouse MIG (R&D systems, catalog number 492-MM). A concentration-dependent contraction curve was created by accumulative application of the prostaglandin agonist U46619. Subsequently, concentration-dependent relaxation curves of Acetylcholine were conducted on these vessels and percent relaxation calculated for each dose.

| Molecule | reduction of estrogen levels [1] [%] | effect on vasorelaxation to Acetylcholine [2] |
| --- | --- | --- |
| N#Cc1ccc(C(c2ccc(C#N)cc2)n2cncn2)cc1 [Letrozole] | 98 | – |
| B1 | – | dose-dependent effect on vasorelaxation |
